ChEMBL document CHEMBL4715866, “A Chemical Probe for Dark Kinase STK17B Derives Its Potency and High Selectivity through a Unique P-Loop Conformation” (J Med Chem, 2020)
≈ marks a conversion by molar mass, not a printed value.

Legend:
[1] = target: T1, Serine/threonine-protein kinase 17B (Homo sapiens, UniProt O94768); assay: Binding affinity to N-terminal His-tagged STK17B kinase domain (25 to 329 residues) (unknown origin) expressed in Escherichia coli by KINOMEscan scanMAX assay
T1 sequence (O94768 whole entry): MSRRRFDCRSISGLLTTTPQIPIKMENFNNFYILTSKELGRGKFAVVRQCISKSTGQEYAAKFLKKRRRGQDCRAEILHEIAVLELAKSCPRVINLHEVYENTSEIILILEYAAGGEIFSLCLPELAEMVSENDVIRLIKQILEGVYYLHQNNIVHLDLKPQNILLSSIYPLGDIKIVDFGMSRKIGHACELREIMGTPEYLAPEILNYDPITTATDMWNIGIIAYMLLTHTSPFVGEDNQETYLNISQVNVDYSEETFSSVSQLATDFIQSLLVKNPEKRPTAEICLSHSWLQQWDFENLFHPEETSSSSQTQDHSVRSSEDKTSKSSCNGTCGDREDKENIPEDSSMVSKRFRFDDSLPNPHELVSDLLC

[2] = target: T1, Serine/threonine-protein kinase 17B; assay: Inhibition of N-terminal His-tagged STK17B kinase domain (25 to 329 residues) (unknown origin) expressed in Escherichia coli incubated for 90 mins by Kinase seeker split luciferase assay
[3] = Stability in mouse liver microsomes assessed as compound remaining at 0.1 mM in presence of NADPH regeneration system after 30 mins by LC-MS/MS analysis; format: ADME, Microsome; details: read-out: Stabilty
[4] = Kinetic solubility in pH 7.4 PBS; format: physicochemical; details: read-out: Kinetic_solubility
[5] = target: T2, Hepatocyte growth factor receptor (Homo sapiens, UniProt P08581); assay: Binding affinity to human MET assessed as displacement of immobilized ligand by KINOMEscan scanMAX assay relative to control
T2 sequence (P08581 whole entry): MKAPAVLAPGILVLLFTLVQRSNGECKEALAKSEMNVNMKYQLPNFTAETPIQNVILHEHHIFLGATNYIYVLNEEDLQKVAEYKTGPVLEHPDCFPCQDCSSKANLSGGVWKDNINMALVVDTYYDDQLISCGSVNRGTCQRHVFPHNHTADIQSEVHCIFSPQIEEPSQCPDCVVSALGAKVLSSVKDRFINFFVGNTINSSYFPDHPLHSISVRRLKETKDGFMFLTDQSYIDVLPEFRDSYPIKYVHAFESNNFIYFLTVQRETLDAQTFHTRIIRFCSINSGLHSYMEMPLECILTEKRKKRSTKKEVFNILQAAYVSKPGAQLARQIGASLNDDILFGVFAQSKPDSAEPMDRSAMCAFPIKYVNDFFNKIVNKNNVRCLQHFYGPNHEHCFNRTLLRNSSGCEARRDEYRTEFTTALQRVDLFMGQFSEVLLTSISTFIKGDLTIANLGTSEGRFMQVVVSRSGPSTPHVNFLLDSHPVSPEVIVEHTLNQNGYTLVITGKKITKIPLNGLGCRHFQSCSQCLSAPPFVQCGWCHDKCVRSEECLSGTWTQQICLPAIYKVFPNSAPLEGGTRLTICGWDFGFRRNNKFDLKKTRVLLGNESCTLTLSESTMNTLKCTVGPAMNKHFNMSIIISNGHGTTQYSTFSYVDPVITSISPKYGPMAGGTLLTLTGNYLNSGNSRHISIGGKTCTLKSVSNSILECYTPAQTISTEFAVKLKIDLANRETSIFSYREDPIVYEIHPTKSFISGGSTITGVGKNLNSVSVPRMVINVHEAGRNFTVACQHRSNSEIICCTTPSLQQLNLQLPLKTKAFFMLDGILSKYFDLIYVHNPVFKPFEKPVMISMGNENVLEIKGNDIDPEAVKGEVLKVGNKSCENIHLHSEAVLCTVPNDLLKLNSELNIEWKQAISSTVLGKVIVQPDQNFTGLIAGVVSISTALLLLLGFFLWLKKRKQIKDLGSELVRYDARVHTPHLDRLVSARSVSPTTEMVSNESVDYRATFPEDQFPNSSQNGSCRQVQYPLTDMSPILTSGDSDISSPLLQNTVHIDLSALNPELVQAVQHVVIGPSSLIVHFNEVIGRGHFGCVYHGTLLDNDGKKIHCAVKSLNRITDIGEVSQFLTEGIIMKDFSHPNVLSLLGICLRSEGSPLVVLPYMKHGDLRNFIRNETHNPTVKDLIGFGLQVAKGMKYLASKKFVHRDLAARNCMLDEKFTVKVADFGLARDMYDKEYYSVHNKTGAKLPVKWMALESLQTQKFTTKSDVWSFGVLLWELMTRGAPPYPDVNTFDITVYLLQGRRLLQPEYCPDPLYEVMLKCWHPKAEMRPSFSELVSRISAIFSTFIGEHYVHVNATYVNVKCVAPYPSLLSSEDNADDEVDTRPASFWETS

[6] = target: T3, Serine/threonine-protein kinase Nek6 (Homo sapiens, UniProt Q9HC98); assay: Binding affinity to human NEK6 assessed as displacement of immobilized ligand by KINOMEscan scanMAX assay relative to control
T3 sequence (Q9HC98 whole entry): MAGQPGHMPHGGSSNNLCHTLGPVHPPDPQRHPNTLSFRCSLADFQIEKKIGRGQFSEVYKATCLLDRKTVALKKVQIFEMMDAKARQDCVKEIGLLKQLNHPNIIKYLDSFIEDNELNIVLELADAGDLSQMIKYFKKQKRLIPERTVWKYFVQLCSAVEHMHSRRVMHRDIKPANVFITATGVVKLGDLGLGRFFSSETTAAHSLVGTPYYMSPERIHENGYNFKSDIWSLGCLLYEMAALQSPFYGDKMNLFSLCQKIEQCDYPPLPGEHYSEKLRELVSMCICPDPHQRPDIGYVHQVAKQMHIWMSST

[7] = target: T4, Serine/threonine-protein kinase pim-2 (Homo sapiens, UniProt Q9P1W9); assay: Binding affinity to human PIM2 assessed as displacement of immobilized ligand by KINOMEscan scanMAX assay relative to control
T4 sequence (Q9P1W9 whole entry): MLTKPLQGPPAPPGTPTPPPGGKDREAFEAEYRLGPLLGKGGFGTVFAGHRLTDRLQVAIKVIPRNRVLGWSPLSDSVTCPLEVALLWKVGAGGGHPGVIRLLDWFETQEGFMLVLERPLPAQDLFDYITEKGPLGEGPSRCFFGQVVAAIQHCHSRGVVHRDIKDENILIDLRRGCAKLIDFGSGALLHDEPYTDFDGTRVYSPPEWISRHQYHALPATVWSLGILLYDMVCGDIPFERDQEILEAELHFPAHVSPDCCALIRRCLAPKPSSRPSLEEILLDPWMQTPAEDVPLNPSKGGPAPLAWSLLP

Wee1-like protein kinase [8] = target: T5, Wee1-like protein kinase (Homo sapiens, UniProt P30291); assay: Binding affinity to human WEE1 assessed as displacement of immobilized ligand by KINOMEscan scanMAX assay relative to control
T5 sequence (P30291 whole entry): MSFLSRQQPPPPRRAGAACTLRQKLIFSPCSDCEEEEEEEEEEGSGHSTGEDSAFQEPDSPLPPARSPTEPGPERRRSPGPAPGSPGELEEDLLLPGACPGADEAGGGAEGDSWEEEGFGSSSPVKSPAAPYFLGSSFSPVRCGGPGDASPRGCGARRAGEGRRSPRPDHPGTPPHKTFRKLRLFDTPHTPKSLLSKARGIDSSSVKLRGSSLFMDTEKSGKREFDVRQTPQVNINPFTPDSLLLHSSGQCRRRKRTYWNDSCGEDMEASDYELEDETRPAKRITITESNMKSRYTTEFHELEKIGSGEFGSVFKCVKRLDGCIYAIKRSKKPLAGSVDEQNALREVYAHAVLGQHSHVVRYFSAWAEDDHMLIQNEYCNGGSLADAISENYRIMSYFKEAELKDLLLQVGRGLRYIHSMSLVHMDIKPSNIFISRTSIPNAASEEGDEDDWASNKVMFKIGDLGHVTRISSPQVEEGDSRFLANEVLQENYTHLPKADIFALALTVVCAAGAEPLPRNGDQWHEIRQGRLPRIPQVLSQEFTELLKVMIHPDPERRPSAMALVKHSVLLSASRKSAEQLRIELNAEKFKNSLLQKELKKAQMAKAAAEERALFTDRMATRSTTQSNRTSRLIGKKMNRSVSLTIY

[9] = target: T1, Serine/threonine-protein kinase 17B; assay: Binding affinity to human STK17B assessed as displacement of immobilized ligand by KINOMEscan scanMAX assay relative to control
[10] = target: T6, Calcium/calmodulin-dependent protein kinase kinase 2 (Homo sapiens, UniProt Q96RR4); assay: Binding affinity to human CAMKK2 assessed as displacement of immobilized ligand by KINOMEscan scanMAX assay relative to control
T6 sequence (Q96RR4 whole entry): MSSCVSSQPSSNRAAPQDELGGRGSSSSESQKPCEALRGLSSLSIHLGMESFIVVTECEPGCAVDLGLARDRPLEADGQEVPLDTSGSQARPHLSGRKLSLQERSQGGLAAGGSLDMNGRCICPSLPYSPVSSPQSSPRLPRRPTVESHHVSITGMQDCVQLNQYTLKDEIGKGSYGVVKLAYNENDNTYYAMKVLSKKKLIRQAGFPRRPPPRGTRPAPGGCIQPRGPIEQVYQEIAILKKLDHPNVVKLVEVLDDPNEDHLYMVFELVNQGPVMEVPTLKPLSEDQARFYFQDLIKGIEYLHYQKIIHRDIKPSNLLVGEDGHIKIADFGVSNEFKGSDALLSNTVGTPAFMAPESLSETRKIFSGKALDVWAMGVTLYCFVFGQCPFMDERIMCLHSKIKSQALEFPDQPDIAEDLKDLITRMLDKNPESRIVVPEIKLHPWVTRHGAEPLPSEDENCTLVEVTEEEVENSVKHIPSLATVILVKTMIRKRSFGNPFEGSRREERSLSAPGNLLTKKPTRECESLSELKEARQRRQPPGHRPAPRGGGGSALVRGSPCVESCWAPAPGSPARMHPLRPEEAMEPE

Aurora kinase B [11] = target: T7, Aurora kinase B (Homo sapiens, UniProt Q96GD4); assay: Binding affinity to human AURKB assessed as displacement of immobilized ligand by KINOMEscan scanMAX assay relative to control
T7 sequence (Q96GD4 whole entry): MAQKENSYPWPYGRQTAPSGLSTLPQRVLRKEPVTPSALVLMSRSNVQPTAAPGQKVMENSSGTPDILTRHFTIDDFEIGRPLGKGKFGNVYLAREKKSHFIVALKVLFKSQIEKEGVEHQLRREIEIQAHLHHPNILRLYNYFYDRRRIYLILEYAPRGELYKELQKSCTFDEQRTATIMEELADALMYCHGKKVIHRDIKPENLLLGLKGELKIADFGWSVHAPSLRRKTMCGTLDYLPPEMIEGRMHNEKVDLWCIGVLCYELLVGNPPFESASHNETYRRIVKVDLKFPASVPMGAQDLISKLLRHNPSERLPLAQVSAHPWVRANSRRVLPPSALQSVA

[12] = target: T8, Calcium/calmodulin-dependent protein kinase kinase 1 (Homo sapiens, UniProt Q8N5S9); assay: Binding affinity to human CAMKK1 assessed as displacement of immobilized ligand by KINOMEscan scanMAX assay relative to control
T8 sequence (Q8N5S9 whole entry): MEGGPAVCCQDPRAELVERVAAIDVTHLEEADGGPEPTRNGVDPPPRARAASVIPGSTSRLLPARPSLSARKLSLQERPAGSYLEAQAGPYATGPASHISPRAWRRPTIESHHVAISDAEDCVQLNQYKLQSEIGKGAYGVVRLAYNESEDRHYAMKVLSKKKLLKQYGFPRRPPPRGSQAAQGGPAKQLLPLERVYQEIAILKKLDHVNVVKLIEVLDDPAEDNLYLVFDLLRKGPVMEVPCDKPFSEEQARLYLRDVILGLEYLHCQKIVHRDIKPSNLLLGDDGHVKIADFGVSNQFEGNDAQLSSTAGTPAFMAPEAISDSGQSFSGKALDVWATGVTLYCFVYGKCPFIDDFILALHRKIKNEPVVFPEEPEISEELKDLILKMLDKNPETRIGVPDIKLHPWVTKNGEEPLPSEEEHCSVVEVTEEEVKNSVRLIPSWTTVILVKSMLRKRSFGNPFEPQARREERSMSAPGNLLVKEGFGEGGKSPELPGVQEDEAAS

[13] = target: T9, Serine/threonine-protein kinase 38-like (Homo sapiens, UniProt Q9Y2H1); assay: Binding affinity to human STK38L assessed as displacement of immobilized ligand by KINOMEscan scanMAX assay relative to control
T9 sequence (Q9Y2H1 whole entry): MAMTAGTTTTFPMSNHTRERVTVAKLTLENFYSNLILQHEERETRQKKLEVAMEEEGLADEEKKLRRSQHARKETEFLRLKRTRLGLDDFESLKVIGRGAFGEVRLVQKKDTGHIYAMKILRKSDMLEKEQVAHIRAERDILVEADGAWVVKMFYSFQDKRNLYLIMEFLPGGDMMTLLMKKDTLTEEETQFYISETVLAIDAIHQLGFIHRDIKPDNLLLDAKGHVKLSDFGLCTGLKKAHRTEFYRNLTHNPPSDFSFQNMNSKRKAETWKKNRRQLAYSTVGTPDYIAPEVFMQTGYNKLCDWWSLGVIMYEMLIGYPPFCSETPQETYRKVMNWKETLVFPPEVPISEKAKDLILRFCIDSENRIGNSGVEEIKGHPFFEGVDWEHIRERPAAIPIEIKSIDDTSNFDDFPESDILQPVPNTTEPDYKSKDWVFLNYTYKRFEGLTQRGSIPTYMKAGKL

[14] = target: T10, Serine/threonine-protein kinase 17A (Homo sapiens, UniProt Q9UEE5); assay: Binding affinity to human STK17A assessed as displacement of immobilized ligand by KINOMEscan scanMAX assay relative to control
T10 sequence (Q9UEE5 whole entry): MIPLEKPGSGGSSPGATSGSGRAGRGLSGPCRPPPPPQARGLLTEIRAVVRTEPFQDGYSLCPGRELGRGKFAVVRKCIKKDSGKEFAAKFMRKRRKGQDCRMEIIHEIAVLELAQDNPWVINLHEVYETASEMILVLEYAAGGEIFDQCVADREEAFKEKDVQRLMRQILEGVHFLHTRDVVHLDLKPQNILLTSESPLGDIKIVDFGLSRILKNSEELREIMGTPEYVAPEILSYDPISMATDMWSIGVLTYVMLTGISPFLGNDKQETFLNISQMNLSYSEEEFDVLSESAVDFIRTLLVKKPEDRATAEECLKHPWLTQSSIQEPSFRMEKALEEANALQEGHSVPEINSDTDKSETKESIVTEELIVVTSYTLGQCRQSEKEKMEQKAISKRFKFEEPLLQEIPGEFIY

[15] = target: T2, Hepatocyte growth factor receptor; assay: Inhibition of human MET in presence of ATP at Km level
[16] = target: T3, Serine/threonine-protein kinase Nek6; assay: Inhibition of human NEK6 in presence of ATP at Km level
[17] = target: T4, Serine/threonine-protein kinase pim-2; assay: Inhibition of human PIM2 in presence of ATP at Km level
Wee1-like protein kinase [18] = target: T5, Wee1-like protein kinase; assay: Inhibition of human WEE1 in presence of ATP at Km level
[19] = target: T1, Serine/threonine-protein kinase 17B; assay: Inhibition of human STK17B in presence of ATP at Km level
[20] = target: T6, Calcium/calmodulin-dependent protein kinase kinase 2; assay: Inhibition of human CAMKK2 in presence of ATP at Km level
Aurora kinase B [21] = target: T7, Aurora kinase B; assay: Inhibition of human AURKB in presence of ATP at Km level
[22] = target: T8, Calcium/calmodulin-dependent protein kinase kinase 1; assay: Inhibition of human CAMKK1 in presence of ATP at Km level
[23] = target: T9, Serine/threonine-protein kinase 38-like; assay: Inhibition of human STK38L in presence of ATP at Km level
[24] = target: T10, Serine/threonine-protein kinase 17A; assay: Inhibition of human STK17A in presence of ATP at Km level
[25] = target: T6, Calcium/calmodulin-dependent protein kinase kinase 2; assay: Binding affinity to human CAMKK2 incubated for 2 hrs by nano-BRET assay based cellular target engagement assay
Aurora kinase B [26] = target: T7, Aurora kinase B; assay: Binding affinity to human AURKB incubated for 2 hrs by nano-BRET assay based cellular target engagement assay
[27] = target: T9, Serine/threonine-protein kinase 38-like; assay: Binding affinity to human STK38L incubated for 2 hrs by nano-BRET assay based cellular target engagement assay
[28] = target: T10, Serine/threonine-protein kinase 17A; assay: Binding affinity to human STK17A incubated for 2 hrs by nano-BRET assay based cellular target engagement assay
[29] = target: T1, Serine/threonine-protein kinase 17B

Question: Which Kd [1] does the source give for O=C(O)CSc1ncnc2cc(-c3cc4ccccc4s3)sc12 here?
Answer: The Kd was 5.6 nM.

Question: And the IC50 [2]?
Answer: Its IC50 is 34 nM.

Question: And the remaining at 0.5 h, 100 µM [3]?
Answer: Its remaining at 0.5 h, 100 µM is 63%.

Question: What about the solubility kinetic [4] of the same compound?
Answer: Its solubility kinetic is 5 µg/mL (≈ 13.9 µM).

Question: What about the Kd [5] of the same compound?
Answer: Its Kd is greater than 10000 nM.

Question: What about the Kd [6] of the same compound?
Answer: The Kd was greater than 10000 nM.

Question: What about the Kd [7] of the same compound?
Answer: The Kd was 1500 nM.

Question: What about the Kd (Wee1-like protein kinase [8]) of the same compound?
Answer: The Kd was greater than 10000 nM.

Question: And the Kd [9]?
Answer: Its Kd is 5.6 nM.

Question: And the Kd [10]?
Answer: Its Kd is 21 nM.

Question: And the Kd (Aurora kinase B [11])?
Answer: Its Kd is 110 nM.

Question: What about the Kd [12] of the same compound?
Answer: The Kd was 49 nM.

Question: What about the Kd [13] of the same compound?
Answer: The Kd was greater than 10000 nM.

Question: What about the Kd [14] of the same compound?
Answer: The Kd was 440 nM.

Question: What about the IC50 [15] of the same compound?
Answer: The IC50 was greater than 10000 nM.

Question: And the IC50 [16]?
Answer: The IC50 was greater than 10000 nM.

Question: And the IC50 [17]?
Answer: The IC50 was greater than 10000 nM.

Question: And the IC50 (Wee1-like protein kinase [18])?
Answer: The IC50 was greater than 10000 nM.

Question: What about the IC50 [19] of the same compound?
Answer: The IC50 was 34 nM.

Question: What about the IC50 [20] of the same compound?
Answer: Its IC50 is greater than 10000 nM.

Question: What about the IC50 (Aurora kinase B [21]) of the same compound?
Answer: The IC50 was 8900 nM.

Question: What about the IC50 [22] of the same compound?
Answer: The IC50 was 5200 nM.

Question: What about the IC50 [23] of the same compound?
Answer: Its IC50 is greater than 10000 nM.

Question: And the IC50 [24]?
Answer: The IC50 was 4700 nM.

Question: What about the IC50 [25] of the same compound?
Answer: Its IC50 is 2400 nM.

Question: And the IC50 (Aurora kinase B [26])?
Answer: The IC50 was greater than 10000 nM.

Question: And the IC50 [27]?
Answer: The IC50 was greater than 10000 nM.

Question: What about the IC50 [28] of the same compound?
Answer: Its IC50 is greater than 10000 nM.

Question: And the IC50 [29]?
Answer: Its IC50 is 190 nM.
